According to ChEMBL document CHEMBL3885861, “Open TG-GATES”:

Species: Rattus norvegicus
Assay: Open TG-GATES - Regimen: Single
Assay type: toxicity, organism-based, Sprague-Dawley
Parameters: regimen Single, gender Male, age 6 weeks
Conditions: in vivo, po, route gavage; for gamma-GTP / ALP / ALT / AST / CRE / DBIL / IP / K / LDH / Na / RALB / TBIL / TC / TG / TP: tissue Plasma; for Bas / Eos / Fbg / Hb / Lym / MCH / MCHC / MCV / Mono / Neu / PT / RBC / Ret / APTT / WBC: tissue Blood; for KIDNEY_L / KIDNEY_R / KIDNEY_TOTAL: tissue Kidney

Cc1cnc(NC(=O)C2=C(O)c3ccccc3S(=O)(=O)N2C)s1 [MELOXICAM]
gamma-GTP (0 mg/kg, 24 h, dose level Control): 1 IU/L | TERMINAL_BW (10 mg/kg, 3 h, dose level Low): 224.9 g | Bas (10 mg/kg, 3 h, dose level Low): 0.6% | Eos (10 mg/kg, 3 h, dose level Low): 1% | Fbg (10 mg/kg, 3 h, dose level Low): 239 mg/dL | Hb (10 mg/kg, 3 h, dose level Low): 13.3 g/dL | Lym (10 mg/kg, 3 h, dose level Low): 78% | MCH (10 mg/kg, 3 h, dose level Low): 20.8 pg | MCHC (10 mg/kg, 3 h, dose level Low): 33.6% | MCV (10 mg/kg, 3 h, dose level Low): 62 fL | Mono (10 mg/kg, 3 h, dose level Low): 2% | Neu (10 mg/kg, 3 h, dose level Low): 18.2% | PT (10 mg/kg, 3 h, dose level Low): 12.2 s | RBC (10 mg/kg, 3 h, dose level Low): 638.8 x10_4/ul | Ret (10 mg/kg, 3 h, dose level Low): 7.2% | KIDNEY_L (10 mg/kg, 3 h, dose level Low): 1 g | KIDNEY_R (10 mg/kg, 3 h, dose level Low): 1 g | KIDNEY_TOTAL (10 mg/kg, 3 h, dose level Low): 2 g | ALP (10 mg/kg, 3 h, dose level Low): 867.6 IU/L | ALT (10 mg/kg, 3 h, dose level Low): 31.8 IU/L | AST (10 mg/kg, 3 h, dose level Low): 65.8 IU/L | CRE (10 mg/kg, 3 h, dose level Low): 0.3 mg/dL | DBIL (10 mg/kg, 3 h, dose level Low): 0.06 mg/dL | IP (10 mg/kg, 3 h, dose level Low): 9 mg/dL | K (10 mg/kg, 3 h, dose level Low): 4 meq/L | LDH (10 mg/kg, 3 h, dose level Low): 138 IU/L | Na (10 mg/kg, 3 h, dose level Low): 141 meq/L | RALB (10 mg/kg, 3 h, dose level Low): 3.3 g/dL | TBIL (10 mg/kg, 3 h, dose level Low): 0.1 mg/dL | TC (10 mg/kg, 3 h, dose level Low): 73.6 mg/dL | TG (10 mg/kg, 3 h, dose level Low): 62.6 mg/dL | TP (10 mg/kg, 3 h, dose level Low): 5.5 g/dL | gamma-GTP (10 mg/kg, 3 h, dose level Low): 0.8 IU/L | TERMINAL_BW (10 mg/kg, 6 h, dose level Low): 223 g | APTT (10 mg/kg, 6 h, dose level Low): 17.8 s | Bas (10 mg/kg, 6 h, dose level Low): 0.6% | Eos (10 mg/kg, 6 h, dose level Low): 0.6% | Fbg (10 mg/kg, 6 h, dose level Low): 211.6 mg/dL | Hb (10 mg/kg, 6 h, dose level Low): 13.5 g/dL | Lym (10 mg/kg, 6 h, dose level Low): 77.4% | MCH (10 mg/kg, 6 h, dose level Low): 20.7 pg | MCHC (10 mg/kg, 6 h, dose level Low): 33.6% | MCV (10 mg/kg, 6 h, dose level Low): 61.8 fL | Mono (10 mg/kg, 6 h, dose level Low): 2.6% | Neu (10 mg/kg, 6 h, dose level Low): 18.6% | RBC (10 mg/kg, 6 h, dose level Low): 648.4 x10_4/ul | Ret (10 mg/kg, 6 h, dose level Low): 6.4% | WBC (10 mg/kg, 6 h, dose level Low): 95.9 x10_2/uL | KIDNEY_L (10 mg/kg, 6 h, dose level Low): 1 g | KIDNEY_R (10 mg/kg, 6 h, dose level Low): 1 g | KIDNEY_TOTAL (10 mg/kg, 6 h, dose level Low): 2.1 g | ALP (10 mg/kg, 6 h, dose level Low): 957 IU/L | ALT (10 mg/kg, 6 h, dose level Low): 37.2 IU/L | AST (10 mg/kg, 6 h, dose level Low): 70.6 IU/L | CRE (10 mg/kg, 6 h, dose level Low): 0.3 mg/dL | DBIL (10 mg/kg, 6 h, dose level Low): 0.062 mg/dL | IP (10 mg/kg, 6 h, dose level Low): 9 mg/dL | K (10 mg/kg, 6 h, dose level Low): 3.9 meq/L | LDH (10 mg/kg, 6 h, dose level Low): 163.8 IU/L | Na (10 mg/kg, 6 h, dose level Low): 141 meq/L | RALB (10 mg/kg, 6 h, dose level Low): 3.2 g/dL | TBIL (10 mg/kg, 6 h, dose level Low): 0.1 mg/dL | TC (10 mg/kg, 6 h, dose level Low): 66.8 mg/dL | TG (10 mg/kg, 6 h, dose level Low): 64.4 mg/dL | TP (10 mg/kg, 6 h, dose level Low): 5.2 g/dL | gamma-GTP (10 mg/kg, 6 h, dose level Low): 1 IU/L | TERMINAL_BW (10 mg/kg, 9 h, dose level Low): 220.5 g | APTT (10 mg/kg, 9 h, dose level Low): 17.8 s | Bas (10 mg/kg, 9 h, dose level Low): 0% | Eos (10 mg/kg, 9 h, dose level Low): 0.8% | Fbg (10 mg/kg, 9 h, dose level Low): 216.6 mg/dL | Hb (10 mg/kg, 9 h, dose level Low): 13.4 g/dL | Lym (10 mg/kg, 9 h, dose level Low): 77.8% | MCH (10 mg/kg, 9 h, dose level Low): 21 pg | MCHC (10 mg/kg, 9 h, dose level Low): 34% | MCV (10 mg/kg, 9 h, dose level Low): 62.1 fL | Mono (10 mg/kg, 9 h, dose level Low): 2.8% | Neu (10 mg/kg, 9 h, dose level Low): 17.8% | RBC (10 mg/kg, 9 h, dose level Low): 637.8 x10_4/ul | Ret (10 mg/kg, 9 h, dose level Low): 6.7% | KIDNEY_L (10 mg/kg, 9 h, dose level Low): 1 g | KIDNEY_R (10 mg/kg, 9 h, dose level Low): 1 g | KIDNEY_TOTAL (10 mg/kg, 9 h, dose level Low): 2.1 g | ALP (10 mg/kg, 9 h, dose level Low): 759.6 IU/L | ALT (10 mg/kg, 9 h, dose level Low): 35 IU/L | AST (10 mg/kg, 9 h, dose level Low): 66 IU/L | CRE (10 mg/kg, 9 h, dose level Low): 0.4 mg/dL | DBIL (10 mg/kg, 9 h, dose level Low): 0.06 mg/dL | IP (10 mg/kg, 9 h, dose level Low): 9.5 mg/dL | K (10 mg/kg, 9 h, dose level Low): 3.9 meq/L | LDH (10 mg/kg, 9 h, dose level Low): 176.6 IU/L | Na (10 mg/kg, 9 h, dose level Low): 141.8 meq/L | RALB (10 mg/kg, 9 h, dose level Low): 3.4 g/dL | TBIL (10 mg/kg, 9 h, dose level Low): 0.1 mg/dL | TC (10 mg/kg, 9 h, dose level Low): 69.4 mg/dL | TG (10 mg/kg, 9 h, dose level Low): 41.6 mg/dL | TP (10 mg/kg, 9 h, dose level Low): 5.3 g/dL | gamma-GTP (10 mg/kg, 9 h, dose level Low): 1 IU/L | TERMINAL_BW (10 mg/kg, 24 h, dose level Low): 237.5 g | Bas (10 mg/kg, 24 h, dose level Low): 0.2% | Eos (10 mg/kg, 24 h, dose level Low): 0.8% | Fbg (10 mg/kg, 24 h, dose level Low): 214 mg/dL | Hb (10 mg/kg, 24 h, dose level Low): 13.1 g/dL | Lym (10 mg/kg, 24 h, dose level Low): 74.4% | MCH (10 mg/kg, 24 h, dose level Low): 21.8 pg | MCHC (10 mg/kg, 24 h, dose level Low): 33.9% | MCV (10 mg/kg, 24 h, dose level Low): 64.2 fL | Mono (10 mg/kg, 24 h, dose level Low): 3.2% | Neu (10 mg/kg, 24 h, dose level Low): 20.8% | PT (10 mg/kg, 24 h, dose level Low): 11.8 s | RBC (10 mg/kg, 24 h, dose level Low): 601.4 x10_4/ul | Ret (10 mg/kg, 24 h, dose level Low): 7% | WBC (10 mg/kg, 24 h, dose level Low): 133.5 x10_2/uL | KIDNEY_L (10 mg/kg, 24 h, dose level Low): 1.1 g | KIDNEY_R (10 mg/kg, 24 h, dose level Low): 1.1 g | KIDNEY_TOTAL (10 mg/kg, 24 h, dose level Low): 2.2 g | ALP (10 mg/kg, 24 h, dose level Low): 959.4 IU/L | ALT (10 mg/kg, 24 h, dose level Low): 36.8 IU/L | AST (10 mg/kg, 24 h, dose level Low): 70 IU/L | CRE (10 mg/kg, 24 h, dose level Low): 0.4 mg/dL | DBIL (10 mg/kg, 24 h, dose level Low): 0.082 mg/dL | IP (10 mg/kg, 24 h, dose level Low): 7.9 mg/dL | K (10 mg/kg, 24 h, dose level Low): 4.2 meq/L | LDH (10 mg/kg, 24 h, dose level Low): 177.8 IU/L | Na (10 mg/kg, 24 h, dose level Low): 141 meq/L | RALB (10 mg/kg, 24 h, dose level Low): 3.2 g/dL | TBIL (10 mg/kg, 24 h, dose level Low): 0.1 mg/dL | TC (10 mg/kg, 24 h, dose level Low): 72 mg/dL | TG (10 mg/kg, 24 h, dose level Low): 84.4 mg/dL
